Results: US4264598A (priority 1980, dated 1981)

Assays:
Uronyces phaseoli tipica = assay: Leaf rust, % disease control; type: in vivo, Uronyces phaseoli tipica (host: pinto beans); conditions: 250 ppm spray; inoculated thereafter; rated after about 14 days; relative to untreated check plants
Description: The leaf-rust was made using pinto beans. The pathogen was Uronyces phaseoli tipica. The pinto-bean plants were sprayed with a 250-ppm solution of the test compound in an acetone-water mixture containing a nonionic emulsifier. The treated plants were inoculated thereafter with the pathogen and then incubated in an environmental chamber for approximately 20 hours at 100% relative humidity and a temperature of 68°-70° F. The plants were then removed from the chamber, allowed to dry, and then maintained in a greenhouse at a 60-80% relative humidity. The rate of infection on the leaves was made after about 14 days. The percent disease control provided by a given test compound was based on the disease reduction relative to untreated check plants.

Phytophthora infestans = type: in vivo, Phytophthora infestans (host: tomato, cultivar Bonny Best); conditions: 250 ppm spray; inoculated one day later; approximately 7 days in greenhouse; relative to untreated check plants
[1] = test system: Alternaria solani conidia; assay: Tomato early blight, % disease control; type: in vivo, Alternaria solani (host: tomato, variety Bonny Best); conditions: 250 ppm spray; inoculated one day later; about 12 days; relative to untreated check plants
Description: Compounds of the invention were tested for the control of the Tomato Early Blight organism, Alternaria solani conidia. Tomato (variety Bonny Best) seedlings of 6 to 7 weeks old were used. The tomato plants were sprayed with a 250-ppm solution of the test compound in an acetone-and-water solution containing a small amount of a nonionic emulsifier. The sprayed plants were inoculated one day later with the organism, dried and maintained at 60-80% relative humidity for about 12 days. Percent disease control was based on the percent disease development on untreated check plants.

Erysiphe polygoni = assay: Powdery mildew, % disease control; type: in vivo, Erysiphe polygoni (host: bean seedlings, var. Bountiful); conditions: 250 ppm spray; inoculated one day later; rated after about 10 days; relative to untreated check plants
Description: The powdery mildew test was made using bean seedlings (var. Bountiful) with well-developed primary leaves. The pathogen was Erysiphe polygoni. The bean seedlings were sprayed with a 250-ppm solution of the test compound in an acetone-water mixture containing a nonionic emulsifier. The treated plants were inoculated one day after spray application of the test compound with the pathogen. The plants were then maintained in a greenhouse at a 60-80% relative humidity and at a temperature of 68°-70° F. The rate of infection on the leaves was made after about 10 days. The percent disease control provided by a given test compound was based on the disease reduction relative to untreated check plants.

Septoria apii = type: in vivo, Septoria apii (host: celery, Utah); conditions: 250 ppm (Table I default); approximately 48 hours incubation then approximately 14 days; relative to untreated check plants

SMILES | Fungicidal efficacy, % control, LR (Uronyces phaseoli tipica) [%] | Fungicidal efficacy, % control, TLB (Phytophthora infestans) [%] | Fungicidal efficacy, % control, TEB [1] [%] | Fungicidal efficacy, % control, PM (Erysiphe polygoni) [%] | Fungicidal efficacy, % control, CLB (Septoria apii) [%]
C#CC(C)(C)N1CN(C(C)(C)C#C)CN(C(C)(C)C#C)C1 [Compound 2, 1,3,5-(1',1'-dimethyl-propargyl)-hexahydro-1,3,5-triazine] | 0 | 0 | 0 | 0 | 27
C#CC1(N2CN(C3(C#C)CCCCC3)CN(C3(C#C)CCCCC3)C2)CCCCC1 [Compound 1, 1,3,5-TRI(1'-ETHYNYLCYCLOHEXYL)-HEXAHYDRO-1,3,5-TRIAZINE] | 0 | 100 | 100 | 37 | 74
